Laboratory results reported in PubChem BioAssay (NCI).
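Grown in 96-well plates, cells were treated for 48 hours with each compound at five concentrations. Insufficient inhibition: endpoint recorded as highest concentration tested. GI50 is the concentration that inhibits growth by half. TGI is the concentration that stops growth completely.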

What was measured:
Assay in all cases: DTP human tumour cell line panel, 48 h
[1] = test system: 786-0 renal
[2] = test system: A498 renal
[3] = test system: A549 NSCLC
[4] = test system: ACHN renal
[5] = test system: CCRF-CEM leukemia
[6] = test system: EKVX NSCLC
[7] = test system: HCC-2998 colon
[8] = test system: HCT-116 colon
[9] = test system: HCT-15 colon
[10] = test system: HL-60(TB) leukemia
[11] = test system: HOP-62 NSCLC
[12] = test system: HS 578T breast
[13] = test system: HT29 colon
[14] = test system: K-562 leukemia
[15] = test system: KM12 colon
[16] = test system: MALME-3M melanoma
[17] = test system: MCF7 breast
[18] = test system: MOLT-4 leukemia
[19] = test system: NCI-H226 lung
[20] = test system: NCI-H23 lung
[21] = test system: NCI-H460 lung
[22] = test system: NCI-H522 lung
[23] = test system: OVCAR-3 ovarian
[24] = test system: OVCAR-5 ovarian
[25] = test system: OVCAR-8 ovarian
[26] = test system: PC-3 prostate
[27] = test system: RPMI-8226 leukemia
[28] = test system: SF-268 CNS
[29] = test system: SF-295 CNS
[30] = test system: SF-539 CNS
[31] = test system: SK-MEL-2 melanoma
[32] = test system: SK-MEL-28 melanoma
[33] = test system: SK-MEL-5 melanoma
[34] = test system: SN12C renal
[35] = test system: SNB-75 CNS
[36] = test system: SR leukemia
[37] = test system: SW-620 colon
[38] = test system: TK-10 renal
[39] = test system: U251 CNS
[40] = test system: UACC-257 melanoma
[41] = test system: BT-549 breast
[42] = test system: CAKI-1 renal
[43] = test system: COLO 205 colon
[44] = test system: DU-145 prostate
[45] = test system: HOP-92 NSCLC
[46] = test system: IGROV1 ovarian
[47] = test system: LOX IMVI melanoma
[48] = test system: M14 melanoma
[49] = test system: MDA-MB-231 breast
[50] = test system: MDA-MB-435
[51] = test system: NCI/ADR-RES ovarian
[52] = test system: OVCAR-4 ovarian
[53] = test system: RXF 393 renal
[54] = test system: SK-OV-3 ovarian
[55] = test system: SNB-19 CNS
[56] = test system: T-47D breast
[57] = test system: UACC-62 melanoma
[58] = test system: UO-31 renal

`Cc1ncc([N+](=O)[O-])n1CC(O)Cn1ccnc1[N+](=O)[O-]` (centres undefined) was tested, and the TGI [1] was greater than 100 µM, the TGI [2] was greater than 100 µM and the TGI [3] was greater than 100 µM. For the same molecule, the TGI [4] was greater than 100 µM, the TGI [5] was greater than 100 µM and the TGI [6] was greater than 100 µM. It also gave a TGI [7] greater than 100 µM, a TGI [8] greater than 100 µM and a TGI [9] greater than 100 µM. For the same molecule, the TGI [10] was greater than 100 µM, the TGI [11] was greater than 100 µM and the TGI [12] was greater than 100 µM. For the same molecule, the TGI [13] was greater than 100 µM, the TGI [14] was greater than 100 µM and the TGI [15] was greater than 100 µM. For the same molecule, the TGI [16] was greater than 100 µM, the TGI [17] was greater than 100 µM and the TGI [18] was greater than 100 µM. For the same molecule, the TGI [19] was greater than 100 µM, the TGI [20] was greater than 100 µM and the TGI [21] was greater than 100 µM. For the same molecule, the TGI [22] was greater than 100 µM, the TGI [23] was greater than 100 µM and the TGI [24] was greater than 100 µM. The TGI [25] was greater than 100 µM, the TGI [26] was greater than 100 µM and the TGI [27] was greater than 100 µM. It also gave a TGI [28] greater than 100 µM, a TGI [29] greater than 100 µM and a TGI [30] greater than 100 µM. The TGI [31] was greater than 100 µM, the TGI [32] was greater than 100 µM and the TGI [33] was greater than 100 µM. It also gave a TGI [34] greater than 100 µM, a TGI [35] greater than 100 µM and a TGI [36] greater than 100 µM. It also gave a TGI [37] greater than 100 µM, a TGI [38] greater than 100 µM and a TGI [39] greater than 100 µM. For the same molecule, the TGI [40] was greater than 100 µM.

For `C=C(C)[C@@H]1CC[C@]2(CNCCO)CC[C@]3(C)[C@H](CC[C@@H]4[C@@]5(C)CCC(N)[C@@](C)(CO)[C@@H]5CC[C@]43C)[C@@H]12` (some centres undefined), the GI50 [1] was 1.68 µM, the TGI [1] was 3.11 µM and the GI50 [2] was 1.36 µM. The TGI [2] was 2.85 µM, the GI50 [3] was 1.8 µM and the TGI [3] was 3.38 µM. The GI50 [4] was 1.99 µM, the TGI [4] was 3.61 µM and the GI50 [41] was 1.74 µM. The TGI [41] was 3.33 µM, the GI50 [42] was 2.85 µM and the TGI [42] was 7.82 µM. For the same molecule, the GI50 [5] was 2.17 µM, the TGI [5] was 5.3 µM and the GI50 [43] was 1.59 µM. For the same molecule, the TGI [43] was 3.08 µM, the GI50 [44] was 1.65 µM and the TGI [44] was 3.18 µM. The GI50 [6] was 1.75 µM, the TGI [6] was 3.38 µM and the GI50 [7] was 1.83 µM. It also gave a TGI [7] of 3.35 µM, a GI50 [8] of 1.55 µM and a TGI [8] of 2.96 µM. For the same molecule, the GI50 [9] was 1.8 µM, the TGI [9] was 3.57 µM and the GI50 [10] was 1.33 µM. For the same molecule, the TGI [10] was 3.46 µM, the GI50 [11] was 1.79 µM and the TGI [11] was 3.28 µM. For the same molecule, the GI50 [45] was 1.43 µM, the TGI [45] was 2.94 µM and the GI50 [13] was 1.46 µM. For the same molecule, the TGI [13] was 3.18 µM, the GI50 [46] was 1.98 µM and the TGI [46] was 4.09 µM. The GI50 [14] was 1.5 µM, the TGI [14] was 3.7 µM and the GI50 [15] was 1.71 µM. It also gave a TGI [15] of 3.21 µM, a GI50 [47] of 1.64 µM and a TGI [47] of 3.1 µM. For the same molecule, the GI50 [48] was 1.75 µM, the TGI [48] was 3.31 µM and the GI50 [16] was 1.8 µM. For the same molecule, the TGI [16] was 3.31 µM, the GI50 [17] was 1.6 µM and the TGI [17] was 3.17 µM. It also gave a GI50 [49] of 1.86 µM, a TGI [49] of 3.44 µM and a GI50 [50] of 1.75 µM. For the same molecule, the TGI [50] was 3.25 µM, the GI50 [18] was 1.56 µM and the TGI [18] was 3.85 µM. The GI50 [19] was 2.13 µM, the TGI [19] was 5.48 µM and the GI50 [20] was 2.14 µM. For the same molecule, the TGI [20] was 3.95 µM, the GI50 [21] was 1.77 µM and the TGI [21] was 3.36 µM. For the same molecule, the GI50 [22] was 1.95 µM, the TGI [22] was 3.69 µM and the GI50 [51] was 12.9 µM. It also gave a TGI [51] of 26.7 µM, a GI50 [23] of 1.75 µM and a TGI [23] of 3.29 µM. It also gave a GI50 [52] of 1.9 µM, a TGI [52] of 3.99 µM and a GI50 [24] of 2.3 µM. It also gave a TGI [24] of 4.79 µM, a GI50 [25] of 1.76 µM and a TGI [25] of 3.39 µM. It also gave a GI50 [26] of 1.73 µM, a TGI [26] of 3.62 µM and a GI50 [27] of 1.65 µM. For the same molecule, the TGI [27] was 3.91 µM, the GI50 [53] was 1.29 µM and the TGI [53] was 2.62 µM. For the same molecule, the GI50 [28] was 1.75 µM, the TGI [28] was 3.46 µM and the GI50 [29] was 1.76 µM. The TGI [29] was 3.33 µM, the GI50 [30] was 1.77 µM and the TGI [30] was 3.27 µM. The GI50 [31] was 1.77 µM, the TGI [31] was 3.27 µM and the GI50 [32] was 1.84 µM. For the same molecule, the TGI [32] was 3.38 µM, the GI50 [33] was 1.74 µM and the TGI [33] was 3.14 µM. The GI50 [54] was 1.95 µM, the TGI [54] was 3.41 µM and the GI50 [34] was 1.75 µM. It also gave a TGI [34] of 3.41 µM, a GI50 [55] of 1.83 µM and a TGI [55] of 3.36 µM. It also gave a GI50 [35] of 1.58 µM, a TGI [35] of 3.1 µM and a GI50 [36] of 1.68 µM. It also gave a TGI [36] of 4.08 µM, a GI50 [37] of 1.93 µM and a TGI [37] of 3.88 µM. The GI50 [56] was 2.07 µM, the TGI [56] was 3.97 µM and the GI50 [38] was 1.74 µM. The TGI [38] was 3.2 µM, the GI50 [39] was 1.69 µM and the TGI [39] was 3.16 µM. It also gave a GI50 [40] of 1.85 µM, a TGI [40] of 3.39 µM and a GI50 [57] of 1.77 µM. For the same molecule, the TGI [57] was 3.19 µM, the GI50 [58] was 1.65 µM and the TGI [58] was 3.07 µM.
